Measured values taken from PubChem BioAssay (NCI).
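Step 1: Grow cells in 96-well plates. Step 2: Expose to compound for 48 hours at 5 concentrations. Step 3: Interpolate endpoints linearly; if unreached, use highest concentration. The concentration for 50% growth inhibition is given as GI50. TGI is the concentration that stops growth completely.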

Columns and labels:
Experiment in all cases: growth of human tumour cells (NCI), 48 h
[1] = test system: 786-0 renal
[2] = test system: A498 renal
[3] = test system: A549 NSCLC
[4] = test system: ACHN renal
[5] = test system: BT-549 breast
[6] = test system: CAKI-1 renal
[7] = test system: CCRF-CEM leukemia
[8] = test system: COLO 205 colon
[9] = test system: DU-145 prostate
[10] = test system: EKVX NSCLC
[11] = test system: HCC-2998 colon
[12] = test system: HCT-116 colon
[13] = test system: HCT-15 colon
[14] = test system: HL-60(TB) leukemia
[15] = test system: HOP-62 NSCLC
[16] = test system: HOP-92 NSCLC
[17] = test system: HS 578T breast
[18] = test system: HT29 colon
[19] = test system: IGROV1 ovarian
[20] = test system: K-562 leukemia
[21] = test system: KM12 colon
[22] = test system: LOX IMVI melanoma
[23] = test system: M14 melanoma
[24] = test system: MALME-3M melanoma
[25] = test system: MCF7 breast
[26] = test system: MDA-MB-231 breast
[27] = test system: MDA-MB-435
[28] = test system: MDA-MB-468 breast
[29] = test system: MOLT-4 leukemia
[30] = test system: NCI-H226 lung
[31] = test system: NCI-H23 lung
[32] = test system: NCI-H460 lung
[33] = test system: NCI-H522 lung
[34] = test system: OVCAR-3 ovarian
[35] = test system: OVCAR-4 ovarian
[36] = test system: OVCAR-5 ovarian
[37] = test system: OVCAR-8 ovarian
[38] = test system: PC-3 prostate
[39] = test system: RPMI-8226 leukemia
[40] = test system: RXF 393 renal
[41] = test system: SF-268 CNS
[42] = test system: SF-295 CNS
[43] = test system: SF-539 CNS
[44] = test system: SK-MEL-2 melanoma
[45] = test system: SK-MEL-28 melanoma
[46] = test system: SK-MEL-5 melanoma
[47] = test system: SK-OV-3 ovarian
[48] = test system: SN12C renal
[49] = test system: SNB-19 CNS
[50] = test system: SNB-75 CNS
[51] = test system: SR leukemia
[52] = test system: SW-620 colon
[53] = test system: T-47D breast
[54] = test system: TK-10 renal
[55] = test system: U251 CNS
[56] = test system: UACC-257 melanoma
[57] = test system: UACC-62 melanoma
[58] = test system: UO-31 renal

Q: Which GI50 [1] does the source give for CNC(=O)c1cccc(NC(=O)c2ccc3c(c2)nnn3/C(C#N)=C/c2ccccn2)c1 here?
A: The GI50 was 2.38 µM.

Q: And the TGI [1]?
A: The TGI was 7.7 µM.

Q: What about the GI50 [2] of the same compound?
A: The GI50 was 18.6 µM.

Q: And the TGI [2]?
A: The TGI was 41.1 µM.

Q: And the GI50 [3]?
A: The GI50 was 22.1 µM.

Q: And the TGI [3]?
A: The TGI was 60 µM.

Q: What about the GI50 [4] of the same compound?
A: The GI50 was 13.7 µM.

Q: What about the TGI [4] of the same compound?
A: The TGI was 26.8 µM.

Q: What about the GI50 [5] of the same compound?
A: The GI50 was 1.95 µM.

Q: What about the TGI [5] of the same compound?
A: Its TGI is 5.59 µM.

Q: And the GI50 [6]?
A: Its GI50 is 6.37 µM.

Q: What about the TGI [6] of the same compound?
A: Its TGI is 19.9 µM.

Q: And the GI50 [7]?
A: The GI50 was 3.71 µM.

Q: What about the TGI [7] of the same compound?
A: Its TGI is 38.4 µM.

Q: What about the GI50 [8] of the same compound?
A: Its GI50 is 2.63 µM.

Q: What about the TGI [8] of the same compound?
A: Its TGI is 6.7 µM.

Q: What about the GI50 [9] of the same compound?
A: Its GI50 is 15.3 µM.

Q: And the TGI [9]?
A: The TGI was 29 µM.

Q: And the GI50 [10]?
A: Its GI50 is 15.8 µM.

Q: What about the TGI [10] of the same compound?
A: The TGI was 30.2 µM.

Q: What about the GI50 [11] of the same compound?
A: Its GI50 is 16.1 µM.

Q: And the TGI [11]?
A: Its TGI is 29.8 µM.

Q: And the GI50 [12]?
A: Its GI50 is 2.74 µM.

Q: And the TGI [12]?
A: Its TGI is 10.1 µM.

Q: What about the GI50 [13] of the same compound?
A: The GI50 was 10.8 µM.

Q: What about the TGI [13] of the same compound?
A: Its TGI is 23.6 µM.

Q: And the GI50 [14]?
A: The GI50 was 3.21 µM.

Q: And the TGI [14]?
A: Its TGI is 24.2 µM.

Q: What about the GI50 [15] of the same compound?
A: The GI50 was 17.9 µM.

Q: What about the TGI [15] of the same compound?
A: The TGI was 41.2 µM.

Q: And the GI50 [16]?
A: Its GI50 is 11.6 µM.

Q: What about the TGI [16] of the same compound?
A: Its TGI is 27.3 µM.

Q: And the GI50 [17]?
A: Its GI50 is 12.6 µM.

Q: And the TGI [17]?
A: Its TGI is 38.1 µM.

Q: What about the GI50 [18] of the same compound?
A: The GI50 was 10.5 µM.

Q: And the TGI [18]?
A: Its TGI is 31.1 µM.

Q: What about the GI50 [19] of the same compound?
A: The GI50 was 13.6 µM.

Q: And the TGI [19]?
A: Its TGI is 27.5 µM.

Q: And the GI50 [20]?
A: Its GI50 is 3.11 µM.

Q: What about the TGI [20] of the same compound?
A: The TGI was over 100 µM.

Q: And the GI50 [21]?
A: The GI50 was 16.5 µM.

Q: And the TGI [21]?
A: Its TGI is 46.9 µM.

Q: And the GI50 [22]?
A: The GI50 was 1.86 µM.

Q: What about the TGI [22] of the same compound?
A: Its TGI is 3.9 µM.

Q: What about the GI50 [23] of the same compound?
A: The GI50 was 10.9 µM.

Q: What about the TGI [23] of the same compound?
A: The TGI was 23 µM.

Q: And the GI50 [24]?
A: Its GI50 is 1.85 µM.

Q: What about the TGI [24] of the same compound?
A: The TGI was 3.94 µM.

Q: What about the GI50 [25] of the same compound?
A: The GI50 was 3.46 µM.

Q: What about the TGI [25] of the same compound?
A: The TGI was 15.6 µM.

Q: And the GI50 [26]?
A: Its GI50 is 11.8 µM.

Q: And the TGI [26]?
A: Its TGI is 24.7 µM.

Q: And the GI50 [27]?
A: The GI50 was 7.69 µM.

Q: What about the TGI [27] of the same compound?
A: Its TGI is 21.4 µM.

Q: And the GI50 [28]?
A: Its GI50 is 1.71 µM.

Q: And the TGI [28]?
A: Its TGI is 3.43 µM.

Q: And the GI50 [29]?
A: Its GI50 is 3.51 µM.

Q: What about the TGI [29] of the same compound?
A: The TGI was 39 µM.

Q: And the GI50 [30]?
A: Its GI50 is 14.3 µM.

Q: What about the TGI [30] of the same compound?
A: The TGI was 29.2 µM.

Q: What about the GI50 [31] of the same compound?
A: The GI50 was 13.4 µM.

Q: What about the TGI [31] of the same compound?
A: Its TGI is 26.8 µM.

Q: And the GI50 [32]?
A: The GI50 was 15.7 µM.

Q: And the TGI [32]?
A: The TGI was 34.1 µM.

Q: And the GI50 [33]?
A: Its GI50 is 1.61 µM.

Q: And the TGI [33]?
A: The TGI was 3.14 µM.

Q: What about the GI50 [34] of the same compound?
A: The GI50 was 3.11 µM.

Q: What about the TGI [34] of the same compound?
A: Its TGI is 10.2 µM.

Q: What about the GI50 [35] of the same compound?
A: Its GI50 is 15.7 µM.

Q: And the TGI [35]?
A: Its TGI is 29.4 µM.

Q: What about the GI50 [36] of the same compound?
A: The GI50 was 15.7 µM.

Q: And the TGI [36]?
A: Its TGI is 29.3 µM.

Q: And the GI50 [37]?
A: Its GI50 is 15.3 µM.

Q: And the TGI [37]?
A: The TGI was 29.8 µM.

Q: And the GI50 [38]?
A: Its GI50 is 19.2 µM.

Q: What about the TGI [38] of the same compound?
A: The TGI was 48 µM.

Q: What about the GI50 [39] of the same compound?
A: The GI50 was 10.4 µM.

Q: And the TGI [39]?
A: The TGI was 52.1 µM.

Q: What about the GI50 [40] of the same compound?
A: Its GI50 is 4.88 µM.

Q: And the TGI [40]?
A: The TGI was 16.9 µM.

Q: And the GI50 [41]?
A: Its GI50 is 17.9 µM.

Q: What about the TGI [41] of the same compound?
A: The TGI was 41.4 µM.

Q: What about the GI50 [42] of the same compound?
A: Its GI50 is 19.7 µM.

Q: What about the TGI [42] of the same compound?
A: Its TGI is 39.5 µM.

Q: What about the GI50 [43] of the same compound?
A: Its GI50 is 13.8 µM.

Q: What about the TGI [43] of the same compound?
A: The TGI was 26.9 µM.

Q: What about the GI50 [44] of the same compound?
A: The GI50 was 12.8 µM.

Q: What about the TGI [44] of the same compound?
A: The TGI was 25.9 µM.

Q: What about the GI50 [45] of the same compound?
A: Its GI50 is 1.95 µM.

Q: What about the TGI [45] of the same compound?
A: The TGI was 4.33 µM.

Q: And the GI50 [46]?
A: Its GI50 is 14.1 µM.

Q: What about the TGI [46] of the same compound?
A: The TGI was 27.4 µM.

Q: And the GI50 [47]?
A: The GI50 was 30.2 µM.

Q: And the TGI [47]?
A: The TGI was over 100 µM.

Q: And the GI50 [48]?
A: Its GI50 is 16.4 µM.

Q: What about the TGI [48] of the same compound?
A: The TGI was 30.3 µM.

Q: What about the GI50 [49] of the same compound?
A: Its GI50 is 18.6 µM.

Q: What about the TGI [49] of the same compound?
A: Its TGI is 38.9 µM.

Q: What about the GI50 [50] of the same compound?
A: Its GI50 is 17.7 µM.

Q: And the TGI [50]?
A: The TGI was 92.4 µM.

Q: What about the GI50 [51] of the same compound?
A: The GI50 was 2.76 µM.

Q: What about the TGI [51] of the same compound?
A: Its TGI is over 100 µM.

Q: What about the GI50 [52] of the same compound?
A: Its GI50 is 1.87 µM.

Q: What about the TGI [52] of the same compound?
A: Its TGI is 3.75 µM.

Q: And the GI50 [53]?
A: The GI50 was 2.31 µM.

Q: What about the TGI [53] of the same compound?
A: Its TGI is 7.38 µM.

Q: And the GI50 [54]?
A: The GI50 was 14 µM.

Q: And the TGI [54]?
A: The TGI was 27.6 µM.

Q: And the GI50 [55]?
A: Its GI50 is 15.3 µM.

Q: And the TGI [55]?
A: The TGI was 32.2 µM.

Q: What about the GI50 [56] of the same compound?
A: The GI50 was 8.21 µM.

Q: And the TGI [56]?
A: Its TGI is 21.2 µM.

Q: And the GI50 [57]?
A: The GI50 was 14 µM.

Q: And the TGI [57]?
A: The TGI was 27.7 µM.

Q: What about the GI50 [58] of the same compound?
A: The GI50 was 12.7 µM.

Q: And the TGI [58]?
A: Its TGI is 25.3 µM.
